Patent US20200306211A1, “METHOD FOR ADAPTING DOSES OF COMBINATION THERAPIES” (Pharnext, priority 2015, published 2020)

System: young and elderly healthy volunteers
Assay: Cognitive Event-Related Potentials (ERP) latency composite score, correlated with plasma drug concentrations
Assay type: in vivo, human
Conditions: plasma concentration at 1.5 h in subjects with best ERP latencies composite score (ERP at Day 10, 6 h post-dose)
Experimental: The study below was a double blind placebo control study performed in accordance with the European Medicines Agency ICH-E6 (R1) guideline recommendations and the French law n° 2004-806, Aug. 9, 2004 relative to public health law. The study was a preliminary study whose one of the objectives was to assess baclofen and acamprosate combinatorial treatment to improve cognition in young and elderly healthy volunteers. The study was conducted on a cohort of 24 human subjects.
Briefly, the duration of treatment was of 10 days.
Electrophysiological measurement of Cognitive Event-Related Potentials (ERPs) were recorded to assess the cognitive performances of the subjects. ERPs are the electrophysiological response to a stimulus and could serve as a surrogate biological marker of cognitive performances. Here, the cognitive task required paying attention and to count odd stimuli according to a specific protocol. Potential is recorded during the test. An ERP latency composite score is determined from the different derivations. […]
A correlation was searched between each of the different endpoints (i.e. the cognitive tests, or the ERP latency composite score) and drug concentrations determined at each sampling time.
Pearson's correlation coefficient was determined for each of the endpoints and different plasmatic concentrations measured as a function of time.

Row | Structure (SMILES) | Most efficient plasmatic concentration in trial [ng/mL]
1 | NCC(CC(=O)O)c1ccc(Cl)cc1 (centres unmarked) [baclofen] | ≥500
2 | CC(=O)NCCCS(=O)(=O)O [acamprosate] | >2.5
